From patent publication US11793792B2, “Composition for prevention and treatment of hair growth disorders” (GIULIANI S.P.A., priority 2018, dated 2023)

Assays:
Lef1 [1] = experiment: Lef1 gene expression (qRT-PCR) in human hair follicle organ culture; format: cell-based; details: microdissected human anagen VI scalp hair follicles; 15 μM; treated 6 hours; normalized on GAPDH; vehicle = 1; N=8 HFs/group from 1 donor
Experimental: Evidence of the activity of compounds of the invention is provided by the expression of Lymphoid enhancer binding factor-1 (Lef1), which plays an important role in bulge stem cells cell growth and differentiation (International Journal of Medical Sciences 2013; 10 (6):738-746).
These products were reconstituted in DMSO (stock solution) and intermediate or working solutions were prepared diluting the stock or the intermediate solution in William's E medium. […]
RNA was extracted from hair follicles with RNeasy kit (Qiagen, USA), and reverse transcribed with Tetro cDNA synthesis kit (Bioline) according to manufacturer's instructions. qPCR was performed in QuantStudio3 (Thermo Fisher) with Taqman probe for Axin2 (Hs00610344_m1, Thermo Fisher), Lef1 (Hs01547250_m1, Thermo Fisher), b-actin (Hs01060665_g1, Life Technologies) and Gapdh (Hs02758991_g1, Thermo Fisher). Expression levels were calculated with the delta-delta CT method. […]

Lef1 [2] = experiment: LEF1 mRNA expression (RT-PCR) in Human Follicle Dermal Papilla Cells (HFDPC); format: cell-based; details: 24 h incubation; for Lef1 fold of change mRNA expression: normalized to GAPDH, relative to untreated calibrator (vehicle = 1)
From the text: In the present test, Hair cell line (derma papilla cells) were used rather than human hair follicle, as in the experiment of Example 4.
We evaluated the stimulation of Lef1 (marker of hair growth) and we retested compound 1 and compound 5 and we use also included the compound WAY-316660, a relatively non-toxic specific antagonist of SFRP1, which has already been used for the treatment of osteoporosis, for its known hair growth promotion activity (Rif. Hawkshaw et al. Plos Biol, 2018; https://journals.plos.org/plosbiology/article?id=10.1371/journal.pbio.2003705).
Biological Model Human Follicle Dermal Papilla Cells (HFDPC)
The cell line was cultured in Follicle Dermal Papilla Cell medium in 25 cm^2 culture flasks at 37° C., 5% CO2. Every two days confluent cultures were splitted 1:3-1:6, after washing with PBS 1× (without Ca2+ and Mg2+), using Trypsin/EDTA and seed at 2-5·10^4 cell/cm^2, 37° C., 5% CO2.
The expression of LEF1 was investigated by RT-PCR. The analysis was performed according to the reported method (Gibson et al, 1996; Heid et al, 1996) using TaqMan Gene Expression Assay supplied by Applied Biosystems. Briefly, within a gene-specific PCR oligonucleotide primer pair, an oligonucleotide probe labelled with a reporter fluorescent dye (FAM) at the 50-end and a quencher fluorescent dye (TAMURA) at the 30-end was designed. When the probe was intact, the reporter dye emission was quenched. During the extension phase of the PCR cycle, the nucleolytic activity of the DNA polymerase cleaved the hybridization probe and released the reporter dye from the probe. Fluorescence intensity produced during PCR amplifications was monitored by a sequence detector directly in the reaction tube (“real time”). A computer algorithm compared the amount of reporter dye emission with the quenching dye emission and calculated the threshold cycle number (CT) when signals reached ten times the standard deviation of the baseline, from which the levels of the mRNAs transcribed from the various genes tested were obtained (Gibson et al, 1996).
Gene expression analysis involves four following step: • 1. Treatments of cells with active compounds for 24 h; • 2. RNA extraction; • 3. cDNA retro transcription; • 4. Quantitative RT-PCR; Day 1: Seed cells
When the cells (Human Follicle Dermal Papilla Cells) reached approximately 80% confluence, they were harvested with trypsin/EDTA and seeded at a density of 1×10^6 cells/ml into 12-well plates and then incubated at 37° C., 5% CO2 (24 h).
When the cells reached approximately 80% confluence, complete medium was removed; cells were washed once with PBS 1× and the incubated in Human Follicle Dermal Papilla Cells at 37° C., 5% CO2 for at least 24 h;
Compounds to be tested (WAY316606, 1, 5, 7, 17, 18, 20, 21, 24) were dissolved in DMSO and diluted at final concentration in Human Follicle Dermal Papilla Cells.
Cells were then incubated at 37° C., 5% CO2 for different 24 h.
Total RNAs were extracted from the cells using Tri Reagent (Thermo Fisher), that is a single, homogenous solution for the isolation of total RNA. This procedure is an improvement of the single-step method reported by (Chomczynski and Mackey, 1995) for total RNA isolation. Tri Reagent, a mixture of guanidine thiocyanate and phenol in a monophase solution, effectively dissolves DNA, RNA, and protein on homogenization or lysis of tissue sample and contains a unique combination of denaturants and RNase inhibitors and is used in a convenient, single-step disruption/separation procedure.
Total RNA, extracted and quantified, was amplified using the “PRIME SCRIPT RT reagent kit (Perfect Real time) (Takara).
For amplification we used the Real time PCR System Mx3000P (Stratagene) and each total RNA was amplified in duplicate.
The RT-PCR analysis was set, using TaqMan linear probes (Applied Biosystems). Those probes are the most widely used and published detection chemistry for qPCR applications. […]

Compound	genic expression of Lef1 (mRNA), mean (Lef1 [1])	effect on LEF1 mRNA expression / activity (in words) (Lef1 [2])	effect on LEF1 mRNA expression / activity (in words) (Lef1 [2]; listed as 1)	Lef1 fold of change mRNA expression (Lef1 [2])	effect on LEF1 mRNA expression / activity (in words) (Lef1 [2]; listed as 5)
COC(=O)c1c(NC(=O)CC2SC(=N)NC2=O)sc(C)c1C (centres unmarked) [Compound C1, 2-(2-(2-Imino-4-oxo-thiazolidin-5-yl)-acetylamino)-4,5-dimethyl-thiophene-3-carboxylic acid methyl ester]	3.425	more active	major induction of Lef1	8.43	
CCOC(=O)c1c(NC(=O)CC2SC(=N)NC2=O)sc(C)c1C (centres unmarked) [Compound C5, 2-(2-(2-Imino-4-oxo-thiazolidin-5-yl)-acetylamino)-4,5-dimethyl-thiophene-3-carboxylic acid ethyl ester]	6.134	more active		6.05	major induction of Lef1
CCOC(=O)c1c(NC(=O)CC2SC(=N)NC2=O)sc(Br)c1C (centres unmarked) [Compound C7]		more active		2.46	
COC(=O)c1ccsc1NC(=O)CC1SC(=N)NC1=O (centres unmarked) [Compound C17]		more active		2.52	
COC(=O)c1cc(-c2ccccc2)sc1NC(=O)CC1SC(=N)NC1=O (centres unmarked) [Compound C18]				1.56	
CCOC(=O)c1c(NC(=O)CC2SC(=N)NC2=O)sc(C)c1-c1ccccc1 (centres unmarked) [Compound C20]				1.39	
CCOC(=O)c1c(C2CC2)csc1NC(=O)CC1SC(=N)NC1=O (centres unmarked) [Compound C21]				1.79	
N=C1NC(=O)C(CC(=O)Nc2scc(C3CCC3)c2C(N)=O)S1 (centres unmarked) [Compound C24]				1.88	
O=S(=O)(NC1CCNCC1)c1cc(S(=O)(=O)c2ccccc2)ccc1C(F)(F)F [WAY-316606, reference compound]				2.18	
